Here are results for 62 molecules from patent US20110152243A1, “NOVEL THIENOPYRROLE COMPOUNDS” (ABBOTT LABORATORIES, priority 2009, published 2011).

The IC50 is the concentration that gives 50% inhibition. Read a high IC50 as a need for much substance.

For this experiment, the target named is PKCθ (Homo sapiens, UniProt Q04759). The experiment can be described thus: PKCθ enzyme data at 1 mM ATP. The class given is biochemical.
Chain of PKCθ (Q04759 whole entry): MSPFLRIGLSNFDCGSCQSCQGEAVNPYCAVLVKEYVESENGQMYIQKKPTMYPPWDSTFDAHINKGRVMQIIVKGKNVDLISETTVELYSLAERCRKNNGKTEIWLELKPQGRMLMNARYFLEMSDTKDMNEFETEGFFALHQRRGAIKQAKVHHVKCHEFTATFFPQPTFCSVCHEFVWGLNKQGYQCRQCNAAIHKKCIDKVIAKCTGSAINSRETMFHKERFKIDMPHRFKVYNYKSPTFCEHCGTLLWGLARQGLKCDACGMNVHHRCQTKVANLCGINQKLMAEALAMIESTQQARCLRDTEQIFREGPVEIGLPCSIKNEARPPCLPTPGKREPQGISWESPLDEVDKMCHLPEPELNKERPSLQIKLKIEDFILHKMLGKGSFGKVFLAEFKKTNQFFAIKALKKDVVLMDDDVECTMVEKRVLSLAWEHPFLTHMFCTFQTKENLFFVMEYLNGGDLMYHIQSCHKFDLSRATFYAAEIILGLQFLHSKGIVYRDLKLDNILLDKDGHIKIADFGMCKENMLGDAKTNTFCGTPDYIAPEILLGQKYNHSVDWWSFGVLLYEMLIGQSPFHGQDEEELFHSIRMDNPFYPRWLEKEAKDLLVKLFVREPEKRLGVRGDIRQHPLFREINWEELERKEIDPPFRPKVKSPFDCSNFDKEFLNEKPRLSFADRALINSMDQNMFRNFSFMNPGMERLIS
`O=C1NC(=O)C(c2c[nH]c3ccsc23)=C1c1nc(N2CCn3ccnc3C2)nc2ccccc12` [E.2.7]: the IC50 is below 100 nM. Next, `O=C1NC(=O)C(c2c[nH]c3sccc23)=C1c1nc(N2CC[C@H](N3CCCC3)[C@H](F)C2)nc2ccccc12` [E.1.29]: 100 to 500 nM; `CN1CCN(c2nc(C3=C(c4c[nH]c5sccc45)C(=O)NC3=O)c3ccsc3n2)CC1` [F.4.2, 3-(2-(4-Methylpiperazin-1-yl)thieno[2,3-d]pyrimidin-4-yl)-4-(6H-thieno[2,3-b]pyrrol-4-yl)-1H-pyrrole-2,5-dione]: below 100 nM; `NCC1CCN(c2nc(C3=C(c4c[nH]c5ccsc45)C(=O)NC3=O)c3ccccc3n2)CC1` [G.1.4]: 100 to 500 nM. For `N#CC1CCN(c2nc(C3=C(c4c[nH]c5sccc45)C(=O)NC3=O)c3ccccc3n2)CC1` [E.1.9] the value was 100 to 500 nM; for `O=C1NC(=O)C(c2c[nH]c3sccc23)=C1c1nc(N2CCN(CCO)CC2)nc2ccccc12` [E.1.19], below 100 nM. Next, `CC(C)(C)N1CCN(c2nc(C3=C(c4c[nH]c5sccc45)C(=O)NC3=O)c3ccccc3n2)CC1` [E.1.22]: below 100 nM; `CN(C)[C@H]1CCN(c2nc(C3=C(c4c[nH]c5sccc45)C(=O)NC3=O)c3ccccc3n2)C[C@H]1F` [E.1.33]: 100 to 500 nM; `O=C1NC(=O)C(c2c[nH]c3ccsc23)=C1c1nc(N2CCN3CCC[C@H]3C2)nc2ccccc12` [E.2.4]: below 100 nM. For `Cc1nnc2n1CCN(c1nc(C3=C(c4c[nH]c5sccc45)C(=O)NC3=O)c3ccccc3n1)C2` [E.1.40], the half-inhibitory concentration (IC50) is below 100 nM. `CN1CCN(c2nc3c(c(C4=C(c5c[nH]c6sccc56)C(=O)NC4=O)n2)CCCC3)CC1` [F.4.16] came in with a 50% inhibitory concentration (IC50) of 100 to 500 nM. The molecule `O=C1NC(=O)C(c2c[nH]c3ccsc23)=C1c1nc(N2CCN3C(=O)CCC3C2)nc2ccccc12` (centres unmarked) [E.2.9] displayed a half-inhibitory concentration (IC50) of 100 to 500 nM. Next, `CC(C1CCN(c2nc(C3=C(c4c[nH]c5sccc45)C(=O)NC3=O)c3ccccc3n2)CC1)N1CCOCC1` (centres unmarked) [E.1.2]: 100 to 500 nM; `O=C1NC(=O)C(c2c3n(c4ccccc24)CCC(CO)C3)=C1c1c[nH]c2sccc12` (centres unmarked) [Example #1, 3-(8-(Hydroxymethyl)-6,7,8,9-tetrahydropyrido[1,2-a]indol-10-yl)-4-(6H-thieno[2,3-b]pyrrol-4-yl)-1H-pyrrole-2,5-dione]: 100 to 500 nM; `CN1CCN(C2CCN(c3nc(C4=C(c5c[nH]c6sccc56)C(=O)NC4=O)c4ccccc4n3)CC2)CC1` [E.1.8]: below 100 nM. For `O=C1NC(=O)C(c2nc(N3CCN4CCC[C@@H]4C3)nc3cccc(F)c23)=C1c1c[nH]c2ccsc12` [F.3.2, (R)-3-(5-Fluoro-2-(hexahydropyrrolo[1,2-a]pyrazin-2(1H)-yl)quinazolin-4-yl)-4-(4H-thieno[3,2-b]pyrrol-6-yl)-1H-pyrrole-2,5-dione] the value was below 100 nM; for `CN(C)[C@H]1CC[C@@H](Cn2nc(C3=C(c4c[nH]c5sccc45)C(=O)NC3=O)c3ccccc32)CC1` [F.4.18], 100 to 500 nM.

In the case of `O=C1NC(=O)C(c2c[nH]c3sccc23)=C1c1nc(N2CCC(O)(CN3CCCC3)CC2)nc2ccccc12` [E.1.25], the IC50 is 100 to 500 nM. In turn, `O=C1NC(=O)C(c2c[nH]c3sccc23)=C1c1nc(N2CC[C@@H](N3CCCC3)[C@H](F)C2)nc2ccccc12` [E.1.32] displayed an IC50 below 100 nM. Next, `O=C1NC(=O)C(c2c[nH]c3ccsc23)=C1c1nc(N2CCNCC2)nc2ccccc12` [G.1.1, 3-(2-(piperazin-1-yl)quinazolin-4-yl)-4-(4H-thieno[3,2-b]pyrrol-6-yl)-1H-pyrrole-2,5-dione]: below 100 nM; `O=C1NC(=O)C(c2c3ccccc3nn2CC2CCNCC2)=C1c1c[nH]c2sccc12` [G.1.16]: 100 to 500 nM. Next, `CN1CC(Cn2nc(C3=C(c4c[nH]c5sccc45)C(=O)NC3=O)c3ccccc32)C1` [F.4.22]: below 100 nM; `CC(C)N1CCN(c2nc(C3=C(c4c[nH]c5sccc45)C(=O)NC3=O)c3ccccc3n2)CC1` [E.1.21]: below 100 nM; `CN1CCN(c2cc3ccc(F)cc3c(C3=C(c4c[nH]c5sccc45)C(=O)NC3=O)n2)CC1` [F.4.34]: below 100 nM. Turning to `Cn1cnc2c1CCN(c1nc(C3=C(c4c[nH]c5sccc45)C(=O)NC3=O)c3ccccc3n1)C2` [E.1.54], the half-inhibitory concentration (IC50) is below 100 nM. Next, `O=C1NC(=O)C(c2c[nH]c3sccc23)=C1c1nc(N2CCC(n3ccnc3)C2)nc2ccccc12` (centres unmarked) [E.1.23]: 500 to 1000 nM. `O=C1NC(=O)C(c2c[nH]c3ccsc23)=C1c1nc(N2CCC(N3CCCCC3)CC2)nc2ccccc12` [E.2.2] gave an IC50 below 100 nM.

For the molecule `CN1CCN(c2nc3c(c(C4=C(c5c[nH]c6sccc56)C(=O)NC4=O)n2)CCC3)CC1` [F.4.10], the half-inhibitory concentration (IC50) is 100 to 500 nM. For `CN1CCN(c2nc(C3=C(c4c[nH]c5ccsc45)C(=O)NC3=O)c3ccccc3n2)CC1` [F.1.2, 3-(2-(4-Methylpiperazin-1-yl)quinazolin-4-yl)-4-(4H-thieno[3,2-b]pyrrol-6-yl)-1H-pyrrole-2,5-dione] the value was below 100 nM; for `COc1cccc2nc(N3CCN(C)CC3)nc(C3=C(c4c[nH]c5sccc45)C(=O)NC3=O)c12` [F.4.11], 100 to 500 nM. For `CN1CCC(Cn2cc(C3=C(c4c[nH]c5sccc45)C(=O)NC3=O)c3ccccc32)CC1` [F.4.17] the value was below 100 nM. For `CNC1(C)CCN(c2nc(C3=C(c4c[nH]c5sccc45)C(=O)NC3=O)c3ccccc3n2)CC1` [E.1.42] the value was 100 to 500 nM; for `O=C1NC(=O)C(c2c[nH]c3sccc23)=C1c1nc(N2CCn3ncnc3C2)nc2ccccc12` [E.1.38], 100 to 500 nM; for `CN1CCC(Cn2cc(C3=C(c4c[nH]c5ccccc45)C(=O)NC3=O)c3ccsc32)CC1` [F.5.1], below 100 nM. Turning to `CNC1CCN(c2nc(C3=C(c4c[nH]c5sccc45)C(=O)NC3=O)c3ccccc3n2)C1` (centres unmarked) [G.1.7], the half-inhibitory concentration (IC50) is 100 to 500 nM. For `O=C1NC(=O)C(c2c[nH]c3sccc23)=C1c1nc(N2CCC23CCNCC3)nc2ccccc12` [E.1.36] the value was below 100 nM; for `CN1CC[C@@H]2CN(c3nc(C4=C(c5c[nH]c6sccc56)C(=O)NC4=O)c4ccccc4n3)CC[C@@H]21` [E.1.59], below 100 nM. Next, `O=C1NC(=O)C(c2nc(N3CCN4CCC[C@@H]4C3)nc3cccc(F)c23)=C1c1c[nH]c2sccc12` [F.4.3, (R)-3-(5-Fluoro-2-(hexahydropyrrolo[1,2-a]pyrazin-2(1H)-yl)quinazolin-4-yl)-4-(6H-thieno[2,3-b]pyrrol-4-yl)-1H-pyrrole-2,5-dione]: below 100 nM; `O=C1NC(=O)C(c2c[nH]c3sccc23)=C1c1nc(N2CCC(CN3CCCC3)CC2)nc2ccccc12` [E.1.11]: 100 to 500 nM. In turn, `O=C1NC(=O)C(c2c[nH]c3sccc23)=C1c1nc(N2CCN3C(=O)OCC3C2)nc2ccccc12` (centres unmarked) [E.1.15] came in with a 50% inhibitory concentration (IC50) of 500 to 1000 nM. `Cc1cccc2nc(N3CCN(C)CC3)nc(C3=C(c4c[nH]c5sccc45)C(=O)NC3=O)c12` [F.4.30]: the half-inhibitory concentration (IC50) is below 100 nM. For `O=C1NC(=O)C(c2c[nH]c3sccc23)=C1c1nc(N2CC[C@@H]3NCC[C@@H]3C2)nc2ccccc12` (relative stereo) [G.1.19] the value was below 100 nM; for `CCN1CCC(Cn2nc(C3=C(c4c[nH]c5sccc45)C(=O)NC3=O)c3ccccc32)CC1` [F.4.19], 100 to 500 nM. Next, `Cc1nccn1CC1CCN(c2nc(C3=C(c4c[nH]c5sccc45)C(=O)NC3=O)c3ccccc3n2)CC1` [E.1.3]: 100 to 500 nM; `O=C1NC(=O)C(c2c[nH]c3sccc23)=C1c1nc(N2CCn3c(nnc3C(F)(F)F)C2)nc2ccccc12` [E.1.20]: 100 to 500 nM; `C[C@@H]1CN(C2CCN(c3nc(C4=C(c5c[nH]c6sccc56)C(=O)NC4=O)c4ccccc4n3)CC2)C[C@H](C)O1` [E.1.6]: 100 to 500 nM. Turning to `CN(C)Cc1ncc2n1CCN(c1nc(C3=C(c4c[nH]c5sccc45)C(=O)NC3=O)c3ccccc3n1)C2` [E.1.51], the half-maximal inhibitory concentration (IC50) is below 100 nM. For `CN(C)[C@H]1CC[C@@H](n2nc(C3=C(c4c[nH]c5sccc45)C(=O)NC3=O)c3ccccc32)CC1` [F.4.5] the value was below 100 nM. Next, `Cn1cnc2c1CN(c1nc(C3=C(c4c[nH]c5sccc45)C(=O)NC3=O)c3ccccc3n1)CC2` [E.1.53]: below 100 nM; `COc1ccc2nc(N3CCN(C)CC3)nc(C3=C(c4c[nH]c5sccc45)C(=O)NC3=O)c2c1` [F.4.14]: below 100 nM; `CC(C1CCN(C)CC1)n1nc(C2=C(c3c[nH]c4sccc34)C(=O)NC2=O)c2ccccc21` (centres unmarked) [F.4.35]: 500 to 1000 nM.

For the molecule `Cc1ncc2n1CCN(c1nc(C3=C(c4c[nH]c5sccc45)C(=O)NC3=O)c3ccccc3n1)C2` [E.1.26], the half-maximal inhibitory concentration (IC50) was below 100 nM. For `O=C1NC(=O)C(c2c[nH]c3sccc23)=C1c1nc(N2CCC3(CCN3)CC2)nc2ccccc12` [E.1.35] the value was below 100 nM; for `CNCC1CCN(c2nc(C3=C(c4c[nH]c5sccc45)C(=O)NC3=O)c3ccccc3n2)CC1` [G.1.15], 100 to 500 nM; for `Cc1noc(C2CCN(c3nc(C4=C(c5c[nH]c6sccc56)C(=O)NC4=O)c4ccccc4n3)CC2)n1` [E.1.10], 500 to 1000 nM. For `COCCN1CCC(Cn2nc(C3=C(c4c[nH]c5sccc45)C(=O)NC3=O)c3ccccc32)C1` (centres unmarked) [F.4.26] the value was 100 to 500 nM; for `NC1(CCO)CCN(c2nc(C3=C(c4c[nH]c5sccc45)C(=O)NC3=O)c3ccccc3n2)CC1` [E.1.34], below 100 nM; for `CN(C)CC1CCN(c2nc(C3=C(c4c[nH]c5sccc45)C(=O)NC3=O)c3ccccc3n2)CC1` [E.1.5], below 100 nM. For `CN(C)C1CCN(c2nc(C3=C(c4c[nH]c5ccsc45)C(=O)NC3=O)c3ccccc3n2)CC1` [E.2.3] the value was below 100 nM. As to `CN1CCN(c2nc(C3=C(c4c[nH]c5ccsc45)C(=O)NC3=O)c3c(F)cccc3n2)CC1` [F.3.1, 3-(5-Fluoro-2-(4-methylpiperazin-1-yl)quinazolin-4-yl)-4-(4H-thieno[3,2-b]pyrrol-6-yl)-1H-pyrrole-2,5-dione], the IC50 is below 100 nM. Take `CN1CCN(c2nc(C3=C(c4c[nH]c5sccc45)C(=O)NC3=O)c3ccccc3n2)CC1(C)C` [E.1.24]: the IC50 is below 100 nM. For `CN(C)C1CCN(c2nc(C3=C(c4c[nH]c5sccc45)C(=O)NC3=O)c3ccccc3n2)CC1CO` (centres unmarked) [E.1.37] the value was below 100 nM.
